Results from US10961539B2, “Promoter system inducing expression by 3-hydroxypropionic acid and method for biological production of 3-hydroxypropionic acid using same” (NOROO IC Co., Ltd., priority 2015, dated 2021).
Several values for one entry are separate records, joined by “and”; a condition that tells them apart may be missing. Identical values can stand only once. Like-named read-outs stand apart in the source and are kept apart here.

Experiments:
[1] = system: 3hpdh, 3hibdhIV, and mmsadh; test: Inducer specificity of gene expression (FIGS. 4 and 5); type: cell-based, Pseudomonas denitrificans
C4-LysR = test: GFP reporter inserted at C4-LysR position; type: cell-based, Pseudomonas denitrificans; conditions: w 3-HP 25 mM
From the text: (§1) The effect of the O1 and O2 operators on biosynthesis of the C4-LysR protein and the mmsadh expression was examined by using a green fluorescent protein (GFP) as a reporter (Table 2). In Table 2, the effect of the C4-LysR protein and the O1 and O2 operators on the expression of the C4-LysR and the mmsadh. The relative size of the GFP was shown relative to the wild type in the absence of 3-HP. the C4-LysR protein was either not present or was produced by a constitutive promoter, and a plasmid was prepared to control the expression of the GFP upon the existing promoter having the O1 and O2 operators. Then, the experiment was carried out by inserting the prepared plasmid into a host of P. denitrificans from which genes between the C4-LysR and the mmsadh was deleted. Accordingly, the expression of the GFP was suppressed by the C4-LysR protein itself. That is, when the C4-LysR is expressed, the GFP expression was reduced by more than 10-fold. In addition, the expression regulation was also constant regardless of the presence of 3-HP. In this regard, it was confirmed that the transcription of C4-LysR mRNA was negatively regulated by the C4-LysR protein. This experiment was repeated by using a promoter that randomized the O1 and O2 operators to eliminate the symmetrical dyad. As a result, in the case where the O1 or O2 operator site was randomized, the GFP expression was not regulated by the C4-LysR protein, referring that the C4-LysR protein in the P. denitrificans strain was negatively regulated by the strain itself.

mmsadh [2] = test: GFP reporter inserted at mmsadh position; type: cell-based, Pseudomonas denitrificans; conditions: w 3-HP 25 mM
From the text: as §1
Meanwhile, the effect of the O1 and O2 operators on the mmsadh gene expression was examined in a similar manner. That is, the C4-LysR protein was constitutively expressed, and a plasmid was prepared so that GFP can be located after a promoter having O1 and O2 promoters. Here, an O1 or O2 operator was mutated so that the symmetrical dyad of an O1 or O2 site was randomized. As a result, when the O1 or O2 site was mutated, the phenomenon of up-regulation of transcription by 3-HP disappeared. That is, it means that the O1 and O2 operators are all essential sites for up-regulation of the expression by 3-HP.

[3] = system: C4-LysR protein and promoter DNA fragments; test: Electrophoretic mobility shift assay (EMSA) of C4-LysR protein with promoter DNA fragments; type: binding, Pseudomonas denitrificans; conditions: 25 mM 3-HP
3hibdh = type: cell-based, microorganisms shown in Table 1
3hibdhIV = test: RT-PCR relative mRNA level of 3-HP catabolic gene
mmsadh [4] = test: RT-PCR relative mRNA level of 3-HP catabolic gene
[5] = cells exposed to 25 mmol/L 3-HP vs no 3-HP, M9 medium, rpoD reference gene
[6] = strain with C4 LysR gene removed

SMILES: O=C(O)CCO [3-HP, 3-hydroxypropionic acid]
- inducer of expression of mmsadh and 3hibdhIV ([1]; FIG. 4): acts as an inducer
- amplification of the genes 3hpdh, 3hibdhIV and mmsadh by the compound ([1]; FIGS. 4 and 5): amplified
- relative size of GFP (relative to wild type in the absence of 3-HP) (C4-LysR; O1 & O2 mutation): 10
- relative size of GFP (relative to wild type in the absence of 3-HP) (C4-LysR; O1 mutation): 10
- relative size of GFP (relative to wild type in the absence of 3-HP) (C4-LysR; O2 mutation): 1
- relative size of GFP (relative to wild type in the absence of 3-HP) (C4-LysR; wildtype): 1
- relative size of GFP (relative to wild type in the absence of 3-HP) (C4-LysR; ΔC4-LysR): 10
- relative size of GFP (relative to wild type in the absence of 3-HP) (mmsadh [2]; O1 & O2 mutation): 3
- relative size of GFP (relative to wild type in the absence of 3-HP) (mmsadh [2]; O1 mutation): 3
- relative size of GFP (relative to wild type in the absence of 3-HP) (mmsadh [2]; O2 mutation): 3
- relative size of GFP (relative to wild type in the absence of 3-HP) (mmsadh [2]; wildtype): 55
- relative size of GFP (relative to wild type in the absence of 3-HP) (mmsadh [2]; ΔC4-LysR): 3
- change of affinity of C4-LysR protein to DNA fragment in the presence of 3-HP ([3]; fragment F1): barely changed affinity
- change of affinity of C4-LysR protein to DNA fragment in the presence of 3-HP ([3]; fragment F2): slightly decreased affinity
- change of affinity of C4-LysR protein to DNA fragment in the presence of 3-HP ([3]; fragment F12 (O1 and O2 operators)): increased affinity
- Relative mRNA level 3hibdh + 3-HP (3hibdh): 7.21 and 6.43
- Relative mRNA level 3hibdh + 3-HP (3hibdh; Achromobacter denitrificans, + 3-HP): 6.40
- Relative mRNA level 3hibdh + 3-HP (3hibdh; Acidovorax avenae subsp., + 3-HP): 5.97
- Relative mRNA level 3hibdh + 3-HP (3hibdh; Acidovorax sp., + 3-HP): 6.76
- Relative mRNA level 3hibdh + 3-HP (3hibdh; Acinetobacter baumannii, + 3-HP): 6.02
- Relative mRNA level 3hibdh + 3-HP (3hibdh; Aeromonas hydrophilia, + 3-HP): 6.17
- Relative mRNA level 3hibdh + 3-HP (3hibdh; Agrobacterium sp., + 3-HP): 6.27
- Relative mRNA level 3hibdh + 3-HP (3hibdh; Alcaligenes faecalis, + 3-HP): 5.87
- Relative mRNA level 3hibdh + 3-HP (3hibdh; Alcanivorax hongdengensis, + 3-HP): 6.74
- Relative mRNA level 3hibdh + 3-HP (3hibdh; Alicychphilus denitrificans, + 3-HP): 7.01
- Relative mRNA level 3hibdh + 3-HP (3hibdh; Alteromonas marina, + 3-HP): 6.09
- Relative mRNA level 3hibdh + 3-HP (3hibdh; Amycolatopsis sp., + 3-HP): 5.96
- Relative mRNA level 3hibdh + 3-HP (3hibdh; Anaeromyxobacter dehalogenans, + 3-HP): 6.43
- Relative mRNA level 3hibdh + 3-HP (3hibdh; Azospirillum brasilensse, + 3-HP): 6.54
- Relative mRNA level 3hibdh + 3-HP (3hibdh; Azotobacter vinelandii, + 3-HP): 6.73
- Relative mRNA level 3hibdh + 3-HP (3hibdh; Beijerinckia indica, + 3-HP): 6.59
- Relative mRNA level 3hibdh + 3-HP (3hibdh; Bordetella avium, + 3-HP): 6.04
- Relative mRNA level 3hibdh + 3-HP (3hibdh; Bradyrhizobium japonicum, + 3-HP): 7.21
- Relative mRNA level 3hibdh + 3-HP (3hibdh; Burkholderia ambifaria, + 3-HP): 5.94
- Relative mRNA level 3hibdh + 3-HP (3hibdh; Castellaniella defragrans, + 3-HP): 7.43
- Relative mRNA level 3hibdh + 3-HP (3hibdh; Catenulispora acidiphilia, + 3-HP): 5.84
- Relative mRNA level 3hibdh + 3-HP (3hibdh; Caulobacter sp., + 3-HP): 5.96
- Relative mRNA level 3hibdh + 3-HP (3hibdh; Chromobacterium violaceum, + 3-HP): 7.02
- Relative mRNA level 3hibdh + 3-HP (3hibdh; Collimonas arenae, + 3-HP): 7.20
- Relative mRNA level 3hibdh + 3-HP (3hibdh; Comamonas testosteroni, + 3-HP): 5.88
- Relative mRNA level 3hibdh + 3-HP (3hibdh; Corynebacterium vitaeruminis, + 3-HP): 6.99
- Relative mRNA level 3hibdh + 3-HP (3hibdh; Cupriavidus necator, + 3-HP): 6.84
- Relative mRNA level 3hibdh + 3-HP (3hibdh; Curvibacter gracilus, + 3-HP): 5.76
- Relative mRNA level 3hibdh + 3-HP (3hibdh; Delftia acidovorans, + 3-HP): 6.34
- Relative mRNA level 3hibdh + 3-HP (3hibdh; Ferrimonas balearica, + 3-HP): 7.04
- Relative mRNA level 3hibdh + 3-HP (3hibdh; Glaciecola nitratireducens, + 3-HP): 7.11
- Relative mRNA level 3hibdh + 3-HP (3hibdh; Gordonia bronchialis, + 3-HP): 6.99
- Relative mRNA level 3hibdh + 3-HP (3hibdh; Hahella chijuensis, + 3-HP): 6.81
- Relative mRNA level 3hibdh + 3-HP (3hibdh; Halomonas elongata, + 3-HP): 5.41
- Relative mRNA level 3hibdh + 3-HP (3hibdh; Hirschia litorea, + 3-HP): 6.19
- Relative mRNA level 3hibdh + 3-HP (3hibdh; Idiomarina sp., + 3-HP): 7.21
- Relative mRNA level 3hibdh + 3-HP (3hibdh; Janthinobacterium lividum, + 3-HP): 6.98
- Relative mRNA level 3hibdh + 3-HP (3hibdh; Kitasatospora setae, + 3-HP): 6.46
- Relative mRNA level 3hibdh + 3-HP (3hibdh; Kutzneria albida, + 3-HP): 5.96
- Relative mRNA level 3hibdh + 3-HP (3hibdh; Methylobacterium sp., + 3-HP): 6.02
- Relative mRNA level 3hibdh + 3-HP (3hibdh; Methylocystis sp., + 3-HP): 6.51
- Relative mRNA level 3hibdh + 3-HP (3hibdh; Novosphingobium sp., + 3-HP): 5.98
- Relative mRNA level 3hibdh + 3-HP (3hibdh; Oceanimonas smirnovii, + 3-HP): 6.44
- Relative mRNA level 3hibdh + 3-HP (3hibdh; Paracoccus sp., + 3-HP): 6.32
- Relative mRNA level 3hibdh + 3-HP (3hibdh; Parvibaculum lavamentivorans, + 3-HP): 7.31
- Relative mRNA level 3hibdh + 3-HP (3hibdh; Phenylobacterium kunshanensis, + 3-HP): 7.43
- Relative mRNA level 3hibdh + 3-HP (3hibdh; Photobacterium gaetbuleda, + 3-HP): 7.02
- Relative mRNA level 3hibdh + 3-HP (3hibdh; Polynucleobacter necessarius asymbioticus, + 3-HP): 6.99
- Relative mRNA level 3hibdh + 3-HP (3hibdh; Pseudoalteromonas carrgeenovora, + 3-HP): 5.76
- Relative mRNA level 3hibdh + 3-HP (3hibdh; Pseudogulbenkiania sp., + 3-HP): 5.98
- Relative mRNA level 3hibdh + 3-HP (3hibdh; Pseudomonas denitrificans ATCC13867, + 3-HP): 6.20
- Relative mRNA level 3hibdh + 3-HP (3hibdh; Pseudomonas fluorescens, + 3-HP): 5.81
- Relative mRNA level 3hibdh + 3-HP (3hibdh; Pseudomonas knackmussii, + 3-HP): 6.81
- Relative mRNA level 3hibdh + 3-HP (3hibdh; Pseudomonas protegens, + 3-HP): 5.62
- Relative mRNA level 3hibdh + 3-HP (3hibdh; Pseudoxanthomonas spadix, + 3-HP): 5.99
- Relative mRNA level 3hibdh + 3-HP (3hibdh; Psychrobacter phenylpyruvicus, + 3-HP): 7.04
- Relative mRNA level 3hibdh + 3-HP (3hibdh; Rhodomicrobium vannielli, + 3-HP): 7.01
- Relative mRNA level 3hibdh + 3-HP (3hibdh; Segniliparus rotundus, + 3-HP): 5.81
- Relative mRNA level 3hibdh + 3-HP (3hibdh; Shewanella oneidensis, + 3-HP): 5.81
- Relative mRNA level 3hibdh + 3-HP (3hibdh; Simiduia agarovorans, + 3-HP): 5.76
- Relative mRNA level 3hibdh + 3-HP (3hibdh; Sinorhizobium meliloti, + 3-HP): 5.79
- Relative mRNA level 3hibdh + 3-HP (3hibdh; Sphingobium chlorophenolicum, + 3-HP): 5.99
- Relative mRNA level 3hibdh + 3-HP (3hibdh; Sphingomonas wittichii, + 3-HP): 7.02
- Relative mRNA level 3hibdh + 3-HP (3hibdh; Sphingopyxis alaskensis, + 3-HP): 7.00
- Relative mRNA level 3hibdh + 3-HP (3hibdh; Stenotrophomonas maltophilia, + 3-HP): 6.02
- Relative mRNA level 3hibdh + 3-HP (3hibdh; Streptomyces nodosus, + 3-HP): 6.72
- Relative mRNA level 3hibdh + 3-HP (3hibdh; Tatlockia micdadei, + 3-HP): 6.61
- Relative mRNA level 3hibdh + 3-HP (3hibdh; Thalassospira xiamenensis, + 3-HP): 7.02
- Relative mRNA level 3hibdh + 3-HP (3hibdh; Variovorax paradoxus, + 3-HP): 6.59
- Relative mRNA level 3hibdh + 3-HP (3hibdh; Verminephrobacter eiseniae, + 3-HP): 6.43
- Relative mRNA level 3hibdh + 3-HP (3hibdh; Vibrio furnissii, + 3-HP): 6.03
- Relative mRNA level 3hibdh + 3-HP (3hibdh; Xanthobacter autotrophicus, + 3-HP): 6.23
- Relative mRNA level 3hibdh + 3-HP (3hibdh; Xanthomonas campestri, + 3-HP): 5.81
- increase of expression of 3hibdh by 3-HP (3hibdh; in the microorganisms (Table 7), 25 mM 3-HP in nutrient medium): 14 fold
- fold increase of 3hibdhIV mRNA expression (3hibdhIV; [5]): 146 fold
- 3hibdhIV expression on addition of 3-HP (3hibdhIV; [6]): did not increase the expression
- fold increase of mmsadh mRNA expression (mmsadh [4]; [5]): 137 fold
- mmsadh expression on addition of 3-HP (mmsadh [4]; [6]): did not increase the expression
